From patent US20200368272A1, “COMPOSITION FOR AMELIORATING POST-CEREBRAL STROKE SEQUELA” (MiZ Company Limited, priority 2019, published 2020)

Tests used:
[1] = system: sequelae of cerebellar hemorrhage (loss of motor control, language disorder) in a person
Protocol: A person was hospitalized after developing cerebellar hemorrhage about eight years ago, then was transferred to a rehabilitation hospital after discharge to receive rehabilitation, which they are continuing to this day.
The inhalation of molecular hydrogen was performed daily for the first 2 months, 1 to 1.5 hours in the morning and 1 to 1.5 hours in the evening, then daily for 1 month, 2 to 3 hours in the morning and 2 to 3 hours in the evening, and finally daily for 1 month, 1 hour in the morning and 1 hour in the evening.

[2] = normal temperature and pressure; also printed as 1.6 mg/L; cited from earlier work

## [HH] [molecular hydrogen]
[1]; approximately one month after inhaling
  articulation (language disorder): improved
[1]; approximately one month after inhaling, about 6 to 7.5 vol % H2
  time needed to walk a distance that previously took 20 minutes: about 10 minutes
[1]; approximately three months after inhalation
  speech: their speech became even more audible
[1]; approximately two months after inhalation
  motor and daily-life abilities: able to talk while walking, their stride during rehabilitation lengthened
[2]
  concentration at which hydrogen dissolves in water: about 1.6 ppm
